Paper PMC6691761, “Potential multifunctional agents with anti-hepatoma and anti-inflammation properties by inhibiting NF-кB activation” (Journal of Enzyme Inhibition and Medicinal Chemistry, 2019)

system: human liver hepatocellular carcinoma cell line (HepG2); experiment: Cytotoxicity, MTT assay, HepG2; format: cell-based; settings: Homo sapiens, HepG2, 24 h, MTT, 24 h
Description: (§1) Compounds 83–102 were screened against human neoplastic cell lines, such as human breast cancer cells (MCF-7), human colon cancer cells (HCT116), human lung carcinoma cells (A549), human gastric adenocarcinoma cells (SGC7901), human liver hepatocellular carcinoma cell line (HepG2), human cervical carcinoma cells (HeLa), human acute mononuclear granulocyte leukaemia (THP-1), and human normal hepatic cell line (LO2) using modified MTT assay. All the cells were obtained from the American Type Culture Collection (ATCC, Manassas, VA). The cells were cultured in DMEM or 1640. Positive controls (Doxorubicin (DOX) and Curcumin) and BAPs were initially dissolved in dimethyl sulphoxide (DMSO). Experimental concentration of DMSO was always 0.1% (v/v). The concentrations of BAPs and positive controls were 50, 20, 10, 5, 2.5, 1, 0.5, 0.1, 0.05, and 0.01 μg/mL.
(§2) The cells (1 × 10^4 cells/well) were seeded in a 96-well plate and incubated for 24 h. Cells treated with serial concentrations of drugs were incubated for another 24 h. After the media removed, 20 μL of MTT (5 mg/mL) solution was added and incubated for 4 h at 37 °C. The MTT solution was removed and then 150 μL of DMSO was added. The optical density was measured with a multi-well plate reader (TECAN, Mӓnnedorf, Switzerland) at 570 nm. The results are expressed as a decrease in the cell viability (%) in comparison to untreated controls. The concentration of each compound was examined in triplicate, and the IC50 values are expressed in Table 1.

Row | SMILES | IC50 [µM]
1 | COc1cccc2c1C(=O)c1c(O)c3c(c(O)c1C2=O)C[C@@](O)(C(=O)CO)C[C@@H]3O[C@H]1C[C@H](N)[C@H](O)[C@H](C)O1 [DOX, Doxorubicin, reference compound] | 1.2 ± 0.1

same assay, conditions: quotient of IC50 towards LO2 cells

Row | SMILES | HepG2 SI (selectivity index)
2 | COc1cccc2c1C(=O)c1c(O)c3c(c(O)c1C2=O)C[C@@](O)(C(=O)CO)C[C@@H]3O[C@H]1C[C@H](N)[C@H](O)[C@H](C)O1 [DOX, Doxorubicin, reference compound] | 3.9

system: human cervical carcinoma cells (HeLa); experiment: Cytotoxicity, MTT assay, HeLa; format: cell-based; settings: Homo sapiens, HeLa; MTT, 24 h
Description: as §1, §2

Row | SMILES | IC50 [µM]
3 | COc1cccc2c1C(=O)c1c(O)c3c(c(O)c1C2=O)C[C@@](O)(C(=O)CO)C[C@@H]3O[C@H]1C[C@H](N)[C@H](O)[C@H](C)O1 [DOX, Doxorubicin, reference compound] | 7 ± 0.3

same assay, conditions: quotient of IC50 towards LO2 cells

Row | SMILES | HeLa SI (selectivity index)
4 | COc1cccc2c1C(=O)c1c(O)c3c(c(O)c1C2=O)C[C@@](O)(C(=O)CO)C[C@@H]3O[C@H]1C[C@H](N)[C@H](O)[C@H](C)O1 [DOX, Doxorubicin, reference compound] | 0.7

system: human acute mononuclear granulocyte leukaemia (THP-1); experiment: Cytotoxicity, MTT assay, THP-1; format: cell-based; settings: Homo sapiens, THP-1, 24 h, MTT, 24 h
Description: as §1, §2

Row | SMILES | IC50 [µM]
5 | COc1cccc2c1C(=O)c1c(O)c3c(c(O)c1C2=O)C[C@@](O)(C(=O)CO)C[C@@H]3O[C@H]1C[C@H](N)[C@H](O)[C@H](C)O1 [DOX, Doxorubicin, reference compound] | 9.5 ± 0.8

same assay, conditions: quotient of IC50 towards LO2 cells

Row | SMILES | THP-1 SI (selectivity index)
6 | COc1cccc2c1C(=O)c1c(O)c3c(c(O)c1C2=O)C[C@@](O)(C(=O)CO)C[C@@H]3O[C@H]1C[C@H](N)[C@H](O)[C@H](C)O1 [DOX, Doxorubicin, reference compound] | 0.5

system: TNF-α expression in HepG2 xenografts; experiment: Immunohistochemistry staining of TNF-α in HepG2 xenografts; format: in vivo, Balb/c nude mice; settings: 96 5.0 mg/kg, DOX 1.0 mg/kg, versus model group
Procedure: (§3) The HepG2 cells xenografts were established using the Balb/c nude mice (female, 7-week-old, 17–19 g, n = 30) (Shanghai Laboratory Animal Center, Shanghai Shi, China) were used to investigate the anti-hepatoma effect of 96. Animal experiments were reviewed and approved by the Binzhou Medical University Experimental Animal Committee. Briefly, HepG2 cells (1 × 10^7/0.2 ml PBS/mouse) were inoculated subcutaneously. Three days after the inoculation, the mice were randomly divided into five groups: the saline treated group (Control), 96 (0.2 mg/kg) group, 96 (1.0 mg/kg) treated group, 96 (5.0 mg/kg) treated group, and DOX (1.0 mg/kg) treated group. 96 were dissolved in saline containing 1% of DMSO and administered intraperitoneally every 2 d for 20 days. DOX was also administered intraperitoneally every 2 d for 20 d. The body weight and HepG2 xenografts volumes were recorded from the day of treatment, and xenografts volumes were calculated using the equation: tumour volume = length×(width)[2]×π/6. At the end of the experiment, mice were sacrificed and the xenografts were obtained for western blotting, HE staining and immunohistochemistry staining.
(§4) The HepG2 xenografts tissues were embedded using the paraffin, and sectioned for HE staining and immunohistochemistry staining. HE staining was performed routinely. The immunohistochemistry staining carried out as following. […]

Row | SMILES | TNF-α expression, immunohistochemistry
7 | COc1cccc2c1C(=O)c1c(O)c3c(c(O)c1C2=O)C[C@@](O)(C(=O)CO)C[C@@H]3O[C@H]1C[C@H](N)[C@H](O)[C@H](C)O1 [DOX, Doxorubicin, reference compound] | significantly reduced

system: human breast cancer cells (MCF-7); experiment: Cytotoxicity, MTT assay, MCF-7; format: cell-based; settings: Homo sapiens, MCF7; MTT, 24 h
Description: as §1, §2

Row | SMILES | IC50 [µM]
8 | COc1cccc2c1C(=O)c1c(O)c3c(c(O)c1C2=O)C[C@@](O)(C(=O)CO)C[C@@H]3O[C@H]1C[C@H](N)[C@H](O)[C@H](C)O1 [DOX, Doxorubicin, reference compound] | 2.8 ± 0.7

same assay, conditions: quotient of IC50 towards LO2 cells

Row | SMILES | MCF-7 SI (selectivity index)
9 | COc1cccc2c1C(=O)c1c(O)c3c(c(O)c1C2=O)C[C@@](O)(C(=O)CO)C[C@@H]3O[C@H]1C[C@H](N)[C@H](O)[C@H](C)O1 [DOX, Doxorubicin, reference compound] | 1.7

system: human gastric adenocarcinoma cells (SGC7901); experiment: Cytotoxicity, MTT assay, SGC7901; format: cell-based; settings: Homo sapiens, SGC-7901; MTT, 24 h
Description: as §1, §2

Row | SMILES | IC50 [µM]
10 | COc1cccc2c1C(=O)c1c(O)c3c(c(O)c1C2=O)C[C@@](O)(C(=O)CO)C[C@@H]3O[C@H]1C[C@H](N)[C@H](O)[C@H](C)O1 [DOX, Doxorubicin, reference compound] | 3.3 ± 0.5

same assay, conditions: quotient of IC50 towards LO2 cells

Row | SMILES | SGC7901 SI (selectivity index)
11 | COc1cccc2c1C(=O)c1c(O)c3c(c(O)c1C2=O)C[C@@](O)(C(=O)CO)C[C@@H]3O[C@H]1C[C@H](N)[C@H](O)[C@H](C)O1 [DOX, Doxorubicin, reference compound] | 1.4

system: HepG2 xenografts; experiment: HepG2 xenografts growth in nude mice; format: in vivo, Balb/c nude mice; settings: 1.0 mg/kg intraperitoneally every 2 d for 20 days
Procedure: as §3

Row | SMILES | Growth of HepG2 xenografts
12 | COc1cccc2c1C(=O)c1c(O)c3c(c(O)c1C2=O)C[C@@](O)(C(=O)CO)C[C@@H]3O[C@H]1C[C@H](N)[C@H](O)[C@H](C)O1 [DOX, Doxorubicin, reference compound] | significantly inhibited the growth of HepG2 xenografts

system: human lung carcinoma cells (A549); experiment: Cytotoxicity, MTT assay, A549; format: cell-based; settings: Homo sapiens, A549, 24 h, MTT, 24 h
Description: as §1, §2

Row | SMILES | IC50 [µM]
13 | COc1cccc2c1C(=O)c1c(O)c3c(c(O)c1C2=O)C[C@@](O)(C(=O)CO)C[C@@H]3O[C@H]1C[C@H](N)[C@H](O)[C@H](C)O1 [DOX, Doxorubicin, reference compound] | 3.4 ± 0.4

same assay, conditions: quotient of IC50 towards LO2 cells

Row | SMILES | A549 SI (selectivity index)
14 | COc1cccc2c1C(=O)c1c(O)c3c(c(O)c1C2=O)C[C@@](O)(C(=O)CO)C[C@@H]3O[C@H]1C[C@H](N)[C@H](O)[C@H](C)O1 [DOX, Doxorubicin, reference compound] | 1.4

system: human normal hepatic cell line (LO2); experiment: Toxicity to normal cells, MTT assay, LO2; format: cell-based; settings: Homo sapiens, 24 h
Description: as §1, §2

Row | SMILES | IC50 [µM]
15 | COc1cccc2c1C(=O)c1c(O)c3c(c(O)c1C2=O)C[C@@](O)(C(=O)CO)C[C@@H]3O[C@H]1C[C@H](N)[C@H](O)[C@H](C)O1 [DOX, Doxorubicin, reference compound] | 4.7 ± 0.7

system: human colon cancer cells (HCT116); experiment: Cytotoxicity, MTT assay, HCT116; format: cell-based; settings: Homo sapiens, HCT-116; MTT, 24 h
Description: as §1, §2

Row | SMILES | IC50 [µM]
16 | COc1cccc2c1C(=O)c1c(O)c3c(c(O)c1C2=O)C[C@@](O)(C(=O)CO)C[C@@H]3O[C@H]1C[C@H](N)[C@H](O)[C@H](C)O1 [DOX, Doxorubicin, reference compound] | 3.5 ± 0.1

same assay, conditions: quotient of IC50 towards LO2 cells

Row | SMILES | HCT116 SI (selectivity index)
17 | COc1cccc2c1C(=O)c1c(O)c3c(c(O)c1C2=O)C[C@@](O)(C(=O)CO)C[C@@H]3O[C@H]1C[C@H](N)[C@H](O)[C@H](C)O1 [DOX, Doxorubicin, reference compound] | 1.3

system: Bcl-2 expression in HepG2 xenografts; experiment: Immunohistochemistry staining of Bcl-2 in HepG2 xenografts; format: in vivo, Balb/c nude mice; settings: 96 5.0 mg/kg, DOX 1.0 mg/kg, versus model group
Procedure: as §3, §4

Row | SMILES | Bcl-2 expression, immunohistochemistry
18 | COc1cccc2c1C(=O)c1c(O)c3c(c(O)c1C2=O)C[C@@](O)(C(=O)CO)C[C@@H]3O[C@H]1C[C@H](N)[C@H](O)[C@H](C)O1 [DOX, Doxorubicin, reference compound] | significantly reduced

system: HepG2 xenografts; experiment: HE staining of HepG2 xenografts; format: in vivo, Balb/c nude mice; settings: 96 5.0 mg/kg, DOX 1.0 mg/kg
Procedure: as §3
The HepG2 xenografts tissues were embedded using the paraffin, and sectioned for HE staining and immunohistochemistry staining. HE staining was performed routinely. The immunohistochemistry staining carried out as following. Briefly, the processed sections were incubated with the primary antibodies: Bcl-2 and TNF-α (NOVUS BIOLOGICALS) at 4 °C overnight. After washing, the anti-rabbit peroxidase-conjugated secondary antibody (Sigma-Aldrich, St. Louis, MO) was incubated for 1 h at RT. After washing with PBS, the cells were visualized using the 3,3'-diaminobenzidine (DAB) solution under the light microscope. The cell images were taken using a light microscopy (Olympus, Tokyo, Japan).

Row | SMILES | Fracted cells, HE staining
19 | COc1cccc2c1C(=O)c1c(O)c3c(c(O)c1C2=O)C[C@@](O)(C(=O)CO)C[C@@H]3O[C@H]1C[C@H](N)[C@H](O)[C@H](C)O1 [DOX, Doxorubicin, reference compound] | a plenty of fracted cells

same assay, conditions: HepG2 xenografts, versus model group

Row | SMILES | Histopathological change of cell nucleus, HE staining
20 | COc1cccc2c1C(=O)c1c(O)c3c(c(O)c1C2=O)C[C@@](O)(C(=O)CO)C[C@@H]3O[C@H]1C[C@H](N)[C@H](O)[C@H](C)O1 [DOX, Doxorubicin, reference compound] | made the HepG2 cell nucleus wrinkled
